Results from US12594293B2, “Use of 6-thio-dG to treat therapy-resistant telomerasepositive pediatric brain tumors” (The Board of Regents of The University of Texas System, priority 2018, dated 2026).

Legend:
HFF+hTERT cells = experiment: Immunofluorescence and telomere FISH (TIF) assay; type: cell-based, human; conditions: for effect on 6-thio-dG-induced TIFs: 10 μM of ATM or 50 nM ATR specific inhibitor 2 hours prior to and with 3 μM 6-thio-dG for 48 hours
Description: Immunofluorescence and telomere FISH assay. Cells were fixed with 4% paraformaldehyde (PFA) for 15 minutes. Cells were then washed, permeabilized with 0.5% Triton-X-100 in PBS, blocked with 5% donkey serum and 0.3% Triton X-100 in TBS and incubated with primary antibodies against γH2A.X (1:500, rabbit), or cleaved caspase-3 (1:400, rabbit) (Cell Signaling); and/or TRF2 (1:200) (Mouse; NOVUS), as applicable, for overnight followed by TBST wash (×3) next day. Corresponding secondary antibodies were added (Alexa-Fluor 488- or 594-conjugated donkey anti-rabbit, or anti-mouse (1:500) (Jackson ImmunoResearch) for 1 hour and washed with TBS (×3) before mounting. For telomere-FISH, fixed and permeabilized cells were dehydrated with a graded ethanol concentration series, air-dried and covered with hybridization solution (70% formamide, 0.5% Blocking Reagent (Roche Diagnostics) diluted in 100 mM maleic acid and 150 mM sodium chloride, and 10 mM Tris (pH 7.5)) with 300 ng/mL PNA(CCCTAA)3-Cy3 (SEQ ID NO: 1) (Biosynthesis, USA), and denatured for 6 minutes at 84° C. followed by hybridization for at least two hours at room temperature. Cells were washed three times with 70% formamide and 10 mM Tris (pH 7.5) and three times with TBS. Finally, they were embedded with mounting media with DAPI (Vector Laboratories H1200).

[1] = children with recurrent CNS malignancies; thrombocytopenia that led to bleeding; cited from earlier work
HFF + hTERT = experiment: Cell growth assay (viable cell count, trypan blue exclusion); type: cell-based, human; conditions: pre-treated with IMT 2 μM 3 days, then 6-thio-dG 3 μM 3 days
telomerase = experiment: Telomerase activity assay (TRAP) in treated HFF+hTERT cells; type: cell-based, human; conditions: IMT 2 μM
Description: Telomerase activity assay. Telomerase activity was assayed using the TRAPeze Telomerase Detection Kit (Millipore). Cell extracts were prepared according to the manufacturer's protocol. 50-100 ng of total protein was used to assess the telomerase activity by performing polyacrylamide gel (12.5%) electrophoresis.

[2] = tested on: CD138-negative Multiple Myeloma Cancer Stem Cells; conditions: cells from bone marrow aspirates of patients with multiple myeloma; cited from earlier work
[3] = tested on: CD138-positive and CD138-negative cancer stem cells; conditions: by five weeks; cited from earlier work

Molecule | effect on 6-thio-dG-induced TIFs (HFF+hTERT cells) | tolerability and efficacy of regimen [1] | inhibition of cell growth by 6-thio-dG in the combination treatment (HFF + hTERT) | telomerase activity (TRAP assay) (telomerase) | in vitro clonogenic growth [2] | colony forming potential [3] | effect on 6-thio-dG-induced TIF formation (HFF+hTERT cells; IMT 2 μM pre-treatment, then 6-thio-dG 3 μM 3 days) | genomic DNA damage (γH2AX foci) in cells treated with 6-thio-dG (HFF+hTERT cells; IMT 2 μM with 6-thio-dG 3 μM 3 days)
O=c1cc(-c2cccc3c2Sc2ccccc2S3)oc(N2CCOCC2)c1 [ATM inhibitor, reference compound] | reduction in the number of cells with TIFs | – | – | – | – | – | – | –
CNCc1ccc(-c2cc(-c3nc(-c4ccc(S(=O)(=O)C(C)C)cc4)cnc3N)on2)cc1 [ATR inhibitor, reference compound] | reduction in the number of cells with TIFs | – | – | – | – | – | – | –
imetelstat | – | intolerable and ineffective | markedly reduced | inhibition of telomerase activity | inhibited the in vitro clonogenic growth | eliminated the colony forming potential | inhibited 6-thio-dG-induced TIF formation | reduced the genomic DNA damage
